Measured values reported in US5536732A, “N-derivatives of 1-deoxy nojirimycin” (Merrell Pharmaceuticals Inc., priority 1990, dated 1996).

Key:
[1] = test system: HIV-1GB8; test: Inhibition of syncytia formation in JM cells infected with HIV-1GB8 (3 days incubation, 37° C.); format: cell-based; parameters: unit not given here; details: HIV-1GB8, 3 days at 37° C.
Excerpt: (§1) Inhibition of the maturation of envelope glycoproteins gp 160 and gp 120 in human HIV by α-glucosidase I inhibitors result in reductions in infectivity and syncytial formation of the HIV virus. AIDS, Vol. 5(6): 693-698 (1991). Therefore, in order to test the antiviral activity of the compounds of the present invention, the following protocol was followed.
(§2) JM cells were infected with HIV-1GB8 for one hour at room temperature. The cells were then washed and subsequently grown in the presence of varying concentrations of test compound or no compound (control). […] The cell-free supernatant fluid was then titrated for levels of infectivity.
ED50 means 50% effective dose corresponds to the concentration of inhibitor required to lower the syncytia counts by 50%.

[2] = test system: HIV-1GB8; test: Infectivity titration of cell-free supernatant from HIV-1GB8 infected JM cells; format: cell-based
Excerpt: as §1, §2
Infectivity is expressed as log10 determined by the highest dilution of cell-free medium at which syncytia was detected. The results in Table 1 were found.

[3] = Human immunodeficiency virus 1, 72 h, Conc 0.06 mM, read-out: % Control
[4] = Human immunodeficiency virus 1, 72 h, Conc 0.125 mM, read-out: % Control
[5] = Conc 0.5 mM, control 10^3 (Example 44) or 10^4 (Example 43)
[6] = Human immunodeficiency virus 1, 72 h, Conc 0.5 mM, read-out: % Control

For `C[Si](C)(C)CN1C[C@H](O)[C@@H](O)[C@H](O)[C@H]1CO` [Example 32, 1,5-dideoxy-1,5-{[(trimethylsilyl)methyl]imino}-D-glucitol], the “ED50 (concentration required to lower the syncytia counts by 50%)” value [1] was 540.

With `C[Si](C)(C)CCCCN1C[C@H](O)[C@@H](O)[C@H](O)[C@H]1CO` [Example 36, 1,5-dideoxy-1,5-{[4-(trimethylsilyl)butyl]imino}-D-glucitol] the “Infectivity (highest dilution of cell-free medium at which syncytia was detected)” value ([2]; Conc 0.06 mM, control 10^4) was 10^3, the “Infectivity (highest dilution of cell-free medium at which syncytia was detected)” value ([2]; Conc 0.125 mM, control 10^4) was 10^3 and the activity at 60 µM [2, 3] was 73%. The activity at 125 µM [2, 4] was 37%.

For `C[Si](C)(C)/C=C/CN1C[C@H](O)[C@@H](O)[C@H](O)[C@H]1CO` [Example 40, 1,5-dideoxy-1,5-{[(E)-3-(trimethylsilyl)-2-propenyl]imino}-D-glucitol], the “Infectivity (highest dilution of cell-free medium at which syncytia was detected)” value ([2]; Conc 0.06 mM, control 10^4) was 10^3, the “Infectivity (highest dilution of cell-free medium at which syncytia was detected)” value ([2]; Conc 0.125 mM, control 10^4) was 10^2 and the activity at 60 µM [2, 3] was 79%. For the same molecule, the activity at 125 µM [2, 4] was 23% and the “ED50 (concentration required to lower the syncytia counts by 50%)” value [1] was 20.

In the case of `C[Si](C)(C)c1cccc(CN2C[C@H](O)[C@@H](O)[C@H](O)[C@H]2CO)c1` [Example 43, 1,5-Dideoxy-1,5-[{[3-(Trimethylsilyl)Phenyl]Methyl}Imino]-D-Glucitol], the “Infectivity (highest dilution of cell-free medium at which syncytia was detected)” value ([2]; Conc 0.25 mM, control 10^4) is reported as 10^4, the “Infectivity (highest dilution of cell-free medium at which syncytia was detected)” value [2, 5] is reported as 10^4 and the activity at 250 µM ([2]; Human immunodeficiency virus 1, 72 h, Conc 0.25 mM, read-out: % Control) is reported as 100%. For the same molecule, the activity at 500 µM [2, 6] was 100% and the “ED50 (concentration required to lower the syncytia counts by 50%)” value [1] was over 250.

`C[Si](C)(C)CCCN1C[C@H](O)[C@@H](O)[C@H](O)[C@H]1CO` [Example 44, 1,5-Dideoxy-1,5-{[3-(trimethylsilyl)propyl]imino}-D-glucitol] was tested, and the “Infectivity (highest dilution of cell-free medium at which syncytia was detected)” value [2, 5] was 10^1 and the activity at 500 µM [2, 6] was 0%.

`C[Si](C)(C)c1ccc(CN2C[C@H](O)[C@@H](O)[C@H](O)[C@H]2CO)cc1` [Example 46, 1,5-dideoxy-1,5-[{[4-(trimethylsilyl)phenyl]methyl}imino]-D-glucitol] was tested, and the “Infectivity (highest dilution of cell-free medium at which syncytia was detected)” value ([2]; Conc 0.06 mM, control 10^4) was 10^3, the “Infectivity (highest dilution of cell-free medium at which syncytia was detected)” value ([2]; Conc 0.125 mM, control 10^4) was 10^2 and the activity at 60 µM [2, 3] was 55%. For the same molecule, the activity at 125 µM [2, 4] was 28% and the “ED50 (concentration required to lower the syncytia counts by 50%)” value [1] was 10.

For `C[Si](C)(C)CCCCCN1C[C@H](O)[C@@H](O)[C@H](O)[C@H]1CO` [Example 49, 1,5-dideoxy-1,5-{[5-(trimethylsilyl)pentyl]imino}-D-glucitol], the “Infectivity (highest dilution of cell-free medium at which syncytia was detected)” value ([2]; Conc 0.006 mM, control 10^3) was 10^2, the “Infectivity (highest dilution of cell-free medium at which syncytia was detected)” value ([2]; Conc 0.012 mM, control 10^3) was 10^1 and the activity at 6 µM ([2]; Human immunodeficiency virus 1, 72 h, Conc 0.006 mM, read-out: % Control) was 63%. For the same molecule, the activity at 12 µM ([2]; Human immunodeficiency virus 1, 72 h, Conc 0.012 mM, read-out: % Control) was 24%.

With `C[Si](C)(C)CCCCCCN1C[C@H](O)[C@@H](O)[C@H](O)[C@H]1CO` [Example 52, 1,5-Dideoxy-1,5-{[6-(Trimethylsilyl)Hexyl]Imino}-D-Glucitol] the “ED50 (concentration required to lower the syncytia counts by 50%)” value [1] was 33.

`C[Si](C)(CCCCN1C[C@H](O)[C@@H](O)[C@H](O)[C@H]1CO)c1ccccc1` [Example 53, 1,5-dideoxy-1,5-{[4-(dimethylphenylsilyl)butyl]imino}-D-glucitol] was tested, and the “ED50 (concentration required to lower the syncytia counts by 50%)” value [1] was 12.

In the case of `C[Si](C)(C)/C=C\CN1C[C@H](O)[C@@H](O)[C@H](O)[C@H]1CO` [Example 54, 1,5-dideoxy-1,5-{[(Z)-3-(trimethylsilyl)-2-propenyl]imino}-D-glucitol], the “ED50 (concentration required to lower the syncytia counts by 50%)” value [1] is reported as 310.

For `CC(C)(C)[Si](C)(C)/C=C/CN1C[C@H](O)[C@@H](O)[C@H](O)[C@H]1CO` [Example 55, 1,5-Dideoxy-1,5-{[(E)-3-(t-butyldimethylsilyl)-2-propenyl]imino}-D-glucitol], the “ED50 (concentration required to lower the syncytia counts by 50%)” value [1] was 45.

For `CC(C)(C)[Si](C)(C)/C=C\CN1C[C@H](O)[C@@H](O)[C@H](O)[C@H]1CO` [Example 59, 1,5-Dideoxy-1,5-{[(Z)-3-(t-butyldimethylsilyl)-2-propenyl]-imino-}-D-glucitol], the “ED50 (concentration required to lower the syncytia counts by 50%)” value [1] was 190.

With `CC[Si](C)(C)CN1C[C@H](O)[C@@H](O)[C@H](O)[C@H]1CO` [Example 60, 1,5-Dideoxy-1,5-{[(Ethyldimethylsilyl)-Methyl]Imino}-D-Glucitol] the “ED50 (concentration required to lower the syncytia counts by 50%)” value [1] was 18.
